Assay [1] is described as follows: Trolox Equivalents Antioxidant Capacity (TEAC) assay. The note with it: for antioxidant activity (in words): TEAC measurements; for TEAC (Trolox equivalent antioxidant capacity) ± SEM: compounds 10-1000 μM, ABTS 0.5 mM, 734 nm, 6 min, ratio of slopes, no unit, n = 3. The class given is biochemical. How it is done:
Trolox Equivalents Antioxidant Capacity (TEAC) Assay of Compounds (1-11)
Pure compounds and standards (conc. Range 10-1000 μM) were reacted with the fixed concentration of ABTS (0.5 mM) according to the reported method. The decrease in absorbance at 734 nm was recorded 6 min after the addition of pro-formed ABTS radical solution. Standards including Trolox, quercetin, kaempferol and ascorbic acid were used for the comparison of structure-activity relationship with the isolated compounds. The calculation of TEAC values was obtained by plotting the graphs between various concentrations of compounds and percent radical scavenging activity. Slope (m) was then calculated by using the linear regression (y=mx+c) of the plotted curve. Ratio of the value of slope of Trolox with that of isolated compounds was calculated to get TEAC value as follows; TEACCompound=Slope of Trolox/Slope of compound (3)
The TEAC assay was used to assess the power of reduction of total amount of ABTS^•+ radicals formed during the reaction by bioactive metaboilite. The ABTS is intensely colored and when it reacts with antioxidant the color disappeared. […] In present procedure, the ratio of the slope of concentrations of standard and test compound is taken, therefore TEAC is considered as relative value with no unit. Trolox used as standard antioxidant with TEAC value as 1.

Assay [2] in a line: Liver function test (LFT) and lipid profile of serum after oral extract feeding. The assay is classed as in vivo, Male Wistar rats. The note with it: rat serum after two weeks oral feeding; mean ± SEM, n = 6. An excerpt:
Rats were housed in polycarbonate cages, containing hardwood chip bedding. A standard pallet diet and water was made available ad-libitum. A 12 hr light/dark cycle was maintained throughout tbe study. After 14 days of acclimatization, the rats were randomized, and divided to 6 animals in each group: control, test, and positive control (Trolox). Oral doses of extracts were given after every alternate day and their physical status and weight changes were monitored daily. Control group has received an equal volume of normal saline for the same period of time. The experiment was terminated after two weeks of feeding. Under mild anesthetic conditions, blood was drawn via heart puncture. Blood was collected in clot activator plastic tubes, and allowed to clot for 30-40 minutes. Serum was separated by centrifugation and then stored at -20° C. till antioxidant status and other biochemical analysis were carried out. LPT and Lipid Profile The diagnostic facilities of […]), University of Karachi, were used for the biochemical analysis of serum samples. Lipid profile includes cholesterol, triglycerides, high density lipoproteins (HDL), low density lipoproteins (LDL), and LPT including bilirubin (total and direct), enzymes such as alanine aminotransferase (ALT), alkaline phosphatase (ALP), and gamma […] (GGT), were measured. These assays were performed by fully automated chemistry analyzer (Hitachi 902, Roche Diagnostics, Japan) with standardized kits, calibrators, and controls. Total lipid was estimated manually by calorimetric method of phosphovanilline on a photometer (Clinicon 4010, Boehringer […], Germany).

Several values for one entry are separate records, joined by “and”; a condition that tells them apart may be missing. Equal values may be shown once. Where a name gives a salt, the structure may show the parent alone.

Consider 1,5-dimethyl citrate [compound 10], for which, in assay [1], the “antioxidant activity (in words)” value is given as “moderate to low antioxidant activity” and the “TEAC (Trolox equivalent antioxidant capacity) ± SEM” value was 0.67±0.31.
For the molecule `O=C1O[C@H]([C@@H](O)CO)C(O)=C1O` [Ascorbic acid, reference compound], the “TEAC (Trolox equivalent antioxidant capacity) ± SEM” value in assay [1] was determined as 1.14 ± 0.29.
For the molecule `O=c1c(O)c(-c2ccc(O)cc2)oc2cc(O)cc(O)c12` [Kaempferol, reference compound], the “TEAC (Trolox equivalent antioxidant capacity) ± SEM” value turned out to be 0.97 ± 0.27 in assay [1] and 0.97 in assay [1] (listed as keampferol).
In the case of `O=c1c(O)c(-c2ccc(O)c(O)c2)oc2cc(O)cc(O)c12` [Quercetin, reference compound], the “TEAC (Trolox equivalent antioxidant capacity) ± SEM” value came to 1.07 ± 0.23 in assay [1] and 1.07±0.23 in assay [1] (listed as quercetin).
Turning to `Cc1c(C)c2c(c(C)c1O)CCC(C)(C(=O)O)O2` (centres unmarked) [Trolox, 6-hydroxy-2,5,7,8-tetramethylchroman-2-carboxylic acid], in assay [2], the ALP came to 212.54 ± 24.51 U/L, the ALT/SGPT came out at 45.5 ± 5.49 U/L, the Chol is 56.75 ± 2.07 mg/dL and the “Direct Bilirubin” value was 0.085 ± 0.007 mg/dL. Besides, in assay [2], the GGT is reported as 4.25 ± 0.74 U/L, the HDL-c is reported as 55 ± 1.97 mg/dL, the “Indirect Bilirubin” value came to 0.43 ± 0.03 mg/dL and the LDL-c is on record as 14.25 ± 0.96 mg/dL. Further, in assay [2], the TAG turned out to be 40 ± 1.54 mg/dL, the “Total Bilirubin” value was 0.51 ± 0.02 mg/dL, the “Total Lipid” value stood at 260 ± 5 mg/dL and the VLDL is listed as 8.5 ± 0.25 mg/dL. The “TEAC (Trolox equivalent antioxidant capacity) ± SEM” value in assay [1] was 1.
As for `COc1cc(-c2oc3cc(O)cc(O[C@@H]4O[C@H](COC(=O)CC(C)(O)CC(=O)O)[C@@H](O)[C@H](O)[C@H]4O)c3c(=O)c2O)ccc1O` (stereo partly drawn) [compound 1, isorhamnetol 5-O-[6″-(3-hydroxy-3-methyl glutarate)] β-D-glucoside], the “TEAC (Trolox equivalent antioxidant capacity) ± SEM” value in assay [1] is 0.88 ± 0.21.
Same read-out and setting: to `C[C@H]1O[C@@H](Oc2c(-c3ccc(O)cc3)oc3cc(O)cc(O)c3c2=O)[C@@H](O)[C@@H](O)[C@@H]1O` [compound 3, kaempferol 3-O-β-D-rhamnoside] belongs 0.91 ± 0.21; to `O=c1c(O[C@@H]2O[C@H](CO)[C@@H](O)[C@H](O)[C@H]2O)c(-c2ccc(O)c(O)c2)oc2cc(O)cc(O)c12` [compound 4, quercetin 3-O-β-D-glucoside], 0.82±0.23 and 0.82 ± 0.32.
The same measure, in the same setting: to `C[C@H]1O[C@@H](Oc2c(-c3ccc(O)c(O)c3)oc3cc(O)cc(O)c3c2=O)[C@@H](O)[C@@H](O)[C@@H]1O` [compound 5, quercetin 3-O-β-D-rhamnoside] belongs 0.82 ± 0.23; to `O=C(/C=C/c1ccc(O)cc1)O[C@H]1C(Oc2c(-c3ccc(O)c(O)c3)oc3cc(O)cc(O)c3c2=O)O[C@H](CO)[C@@H](O)[C@@H]1O` (some centres unmarked) [compound 6, quercetin 3-O-(2-p-coumaroylglucoside)], 0.36 ± 0.19; to `O=Cc1ccc(CO)o1` [compound 8, 5-hydroxymethylfurfural], 1.05±0.24.
For the molecule `O=C(O)c1ccc(O)c(O)c1` [compound 9, 3,4-dihydroxybenzoic acid], the “TEAC (Trolox equivalent antioxidant capacity) ± SEM” value in assay [1] was determined as 0.95 ± 0.01.
With `COC(=O)CC(O)(CC(=O)OC)C(=O)OC` [compound 11, trimethyl citrate], in assay [1], the “antioxidant activity (in words)” value is reported as “moderate to low antioxidant activity” and the “TEAC (Trolox equivalent antioxidant capacity) ± SEM” value is reported as 0.58±0.12.
Take “kaempferol 3-O-β-D-glucoside [compound 2]”: in assay [1], the “TEAC (Trolox equivalent antioxidant capacity) ± SEM” value is given as 0.80 ± 0.31.
In the case of myricetin 3-O-β-D-xyloside [compound 7], the “TEAC (Trolox equivalent antioxidant capacity) ± SEM” value stood at 0.92 ± 0.35 in assay [1] and 0.92±0.35 in assay [1] (listed as myricetin).

Source of the values: patent US10005809B2, “Bio-active antioxidants from plant foods for nutraceutical product development” (priority 2013, dated 2018).
